Laboratory results published in ChEMBL document CHEMBL5634119, “Design and synthesis of 4th generation EGFR inhibitors against human triple (Del19/T790M/C797S) mutation” (Eur J Med Chem, 2023).

Key:
[1] = Microsomal stability in human liver microsome assessed as parent compound remaining preincubated with compound for 60 mins and measured after 1 hr by HPLC analysis; type: ADME; conditions: liver microsomes, time 2 hrs, read-out: Stability
[2] = Clearance in mouse at 5 mg/kg, iv measured upto 24 hrs by LC-MS/MS analysis; type: ADME, organism-based; conditions: in vivo
[3] = Toxicity in NOD-SCID mouse xenografted with human PC-9 cells harboring Del19/T790M/C797S triple mutant assessed as body weight loss at 50 mg/kg, sc bid administered for 14 days; type: organism-based; conditions: in vivo, 336 h, time 14 day
[4] = target: T1, Epidermal growth factor receptor (Homo sapiens, UniProt P00533); assay: Inhibition of EGFR phosphorylation in human A-431 cells harboring wild type EGFR incubated for 6 hrs by Western blot analysis; type: cell-based
[5] = Half life in mouse at 75 mg/kg, po measured upto 24 hrs by LC-MS/MS analysis; type: ADME, organism-based; conditions: in vivo
[6] = Inhibition of AKT phosphorylation in human A-431 cells harboring wild type EGFR incubated for 6 hrs by Western blot analysis; type: cell-based; conditions: A-431, 6 h
[7] = Inhibition of wild type EGFR in mouse BAF3 cells assessed as reduction in cell proliferation incubated for 3 days by celltiter-glo assay; type: cell-based; conditions: BaF3, 72 h
[8] = tested on: PC-9; assay: Potency index, ratio of Brigatinib IC50 to test compound IC50 for antiproliferative activity against human PC-9 cells harboring EGFR Del19/T790M/C797S mutant incubated for 72 hrs by SRB assay; type: functional
[9] = Inhibition of ERK phosphorylation in human PC-9 cells harboring Del19/T790M/C797S mutant incubated for 6 hrs by Western blot analysis; type: cell-based; conditions: PC-9, 6 h
[10] = tested on: PC-9; assay: Antiproliferative activity against human PC-9 cells harboring EGFR Del19/T790M/C797S mutant incubated for 72 hrs by SRB assay; type: functional, cell-based; conditions: PC-9, 72 h
[11] = Half life in mouse at 5 mg/kg, iv measured upto 24 hrs by LC-MS/MS analysis; type: ADME, organism-based; conditions: in vivo
[12] = Plasma protein binding in human assessed as unbound fraction measured after 6 hrs by rapid equilibrium dialysis based LC-MS/MS analysis; type: ADME, cell-free
[13] = target: T1, Epidermal growth factor receptor; assay: Inhibition of wild type EGFR (unknown origin) in presence of ATP by FRET assay
[14] = Cmax in mouse at 5 mg/kg, iv measured upto 24 hrs by LC-MS/MS analysis; type: ADME, organism-based; conditions: in vivo
[15] = Tmax in mouse at 75 mg/kg, po measured upto 24 hrs by LC-MS/MS analysis; type: ADME, organism-based; conditions: in vivo
[16] = tested on: HCC827; assay: Antiproliferative activity against human HCC827 cells harboring EGFR Del19 mutant incubated for 72 hrs by SRB assay; type: functional, cell-based; conditions: HCC827, 72 h
[17] = Inhibition of ERK phosphorylation in human A-431 cells harboring wild type EGFR incubated for 6 hrs by Western blot analysis; type: cell-based; conditions: A-431, 6 h
[18] = target: T2, Epidermal growth factor receptor (Homo sapiens, UniProt P00533, C797S/EX19DEL/T790M); assay: Inhibition of EGFR del19/T790M/C797S triple mutant (unknown origin) in presence of ATP by FRET assay
[19] = Volume of distribution at steady state in mouse at 5 mg/kg, iv measured upto 24 hrs by LC-MS/MS analysis; type: ADME, organism-based; conditions: in vivo, read-out: Vdss
[20] = AUC (0 to 24 hrs) in mouse at 75 mg/kg, po measured upto 24 hrs by LC-MS/MS analysis; type: ADME, organism-based; conditions: in vivo
[21] = tested on: NCI-H1975; assay: Potency index, ratio of Brigatinib IC50 to test compound IC50 for antiproliferative activity against human NCI-H1975 cells harboring EGFR L858R/T790M/C797S mutant incubated for 72 hrs by SRB assay; type: functional
[22] = tested on: NCI-H1975; assay: Antiproliferative activity against human NCI-H1975 cells harboring EGFR L858R/T790M/C797S mutant incubated for 72 hrs by SRB assay; type: functional, cell-based; conditions: NCI-H1975, 72 h
[23] = Stability in mouse plasma assessed as parent compound remaining measured after 2 hrs by LC-MS/MS analysis; type: ADME, cell-free; conditions: read-out: Stability
[24] = tested on: A-431; assay: Antiproliferative activity against human A-431 cells harboring wild type EGFR incubated for 72 hrs by SRB assay; type: functional, cell-based; conditions: A-431, 72 h
[25] = Cmax in mouse at 75 mg/kg, po measured upto 24 hrs by LC-MS/MS analysis; type: ADME, organism-based; conditions: in vivo
[26] = Plasma protein binding in mouse assessed as unbound fraction measured after 6 hrs by rapid equilibrium dialysis based LC-MS/MS analysis; type: ADME, cell-free
[27] = target: T2, Epidermal growth factor receptor; assay: Inhibition of EGFR phosphorylation in human PC-9 cells harboring Del19/T790M/C797S mutant incubated for 6 hrs by Western blot analysis; type: cell-based
[28] = tested on: NCI-H1975; assay: Antiproliferative activity against human NCI-H1975 cells harboring EGFR L858R/T790M mutant incubated for 72 hrs by SRB assay; type: functional, cell-based; conditions: NCI-H1975, 72 h
[29] = Stability in human plasma assessed as parent compound remaining measured after 2 hrs by LC-MS/MS analysis; type: ADME, cell-free; conditions: read-out: Stability
[30] = Microsomal stability in mouse liver microsome assessed as parent compound remaining preincubated with compound for 60 mins and measured after 1 hr by HPLC analysis; type: ADME; conditions: liver microsomes, time 2 hrs, read-out: Stability
[31] = Inhibition of EGFR del19/T790M/C797S triple mutant in mouse BAF3 cells assessed as reduction in cell proliferation incubated for 3 days by celltiter-glo assay; type: cell-based; conditions: BaF3, 72 h
[32] = target: Epidermal growth factor receptor (Homo sapiens, UniProt P00533, C797S/L858R/T790M); assay: Inhibition of EGFR L858R/T790M/C797S triple mutant (unknown origin) in presence of ATP by FRET assay
[33] = Toxicity in NOD-SCID mouse xenografted with human PC-9 cells harboring Del19/T790M/C797S triple mutant assessed as clinical signs at 50 mg/kg, sc bid administered for 14 days; type: organism-based; conditions: in vivo, 336 h, time 14 day
[34] = Oral bioavailability in mouse at 75 mg/kg measured upto 24 hrs by LC-MS/MS analysis; type: ADME, organism-based; conditions: in vivo
[35] = AUC (0 to 24 hrs) in mouse at 5 mg/kg, iv measured upto 24 hrs by LC-MS/MS analysis; type: ADME, organism-based; conditions: in vivo
[36] = Inhibition of AKT phosphorylation in human PC-9 cells harboring Del19/T790M/C797S mutant incubated for 6 hrs by Western blot analysis; type: cell-based; conditions: PC-9, 6 h

T1 sequence (P00533 whole entry): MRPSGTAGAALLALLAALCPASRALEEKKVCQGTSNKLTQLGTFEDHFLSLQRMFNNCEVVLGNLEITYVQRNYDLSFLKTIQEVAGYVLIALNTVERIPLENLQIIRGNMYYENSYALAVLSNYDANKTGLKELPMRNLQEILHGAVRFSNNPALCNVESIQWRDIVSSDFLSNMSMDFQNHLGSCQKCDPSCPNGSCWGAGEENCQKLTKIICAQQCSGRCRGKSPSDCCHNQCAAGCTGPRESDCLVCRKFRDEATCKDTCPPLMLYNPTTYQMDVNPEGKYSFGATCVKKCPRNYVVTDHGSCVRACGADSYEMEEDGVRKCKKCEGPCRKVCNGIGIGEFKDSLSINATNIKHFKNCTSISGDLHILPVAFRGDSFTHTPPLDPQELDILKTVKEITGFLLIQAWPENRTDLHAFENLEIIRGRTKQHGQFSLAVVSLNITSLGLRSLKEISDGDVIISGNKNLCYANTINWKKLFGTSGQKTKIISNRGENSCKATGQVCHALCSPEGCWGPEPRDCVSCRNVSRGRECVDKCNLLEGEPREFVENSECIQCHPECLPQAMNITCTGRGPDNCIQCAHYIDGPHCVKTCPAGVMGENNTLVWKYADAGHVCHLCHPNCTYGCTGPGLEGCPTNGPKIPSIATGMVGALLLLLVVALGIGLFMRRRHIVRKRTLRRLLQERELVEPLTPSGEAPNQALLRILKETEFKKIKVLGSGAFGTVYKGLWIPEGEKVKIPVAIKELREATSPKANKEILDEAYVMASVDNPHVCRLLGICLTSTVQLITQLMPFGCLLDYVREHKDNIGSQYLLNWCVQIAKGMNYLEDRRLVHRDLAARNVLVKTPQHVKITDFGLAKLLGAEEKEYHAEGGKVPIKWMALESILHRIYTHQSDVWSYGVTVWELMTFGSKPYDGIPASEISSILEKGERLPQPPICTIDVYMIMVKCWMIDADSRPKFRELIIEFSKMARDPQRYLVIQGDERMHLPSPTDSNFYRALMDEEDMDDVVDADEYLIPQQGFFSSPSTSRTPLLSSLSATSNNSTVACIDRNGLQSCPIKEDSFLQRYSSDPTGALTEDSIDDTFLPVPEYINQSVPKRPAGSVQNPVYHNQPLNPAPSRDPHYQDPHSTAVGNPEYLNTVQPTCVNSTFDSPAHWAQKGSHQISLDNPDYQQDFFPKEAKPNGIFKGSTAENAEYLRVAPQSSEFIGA
T2 sequence (P00533 whole entry, looked up, stated change not applied): as the sequence (P00533 whole entry) above
Chain of Epidermal growth factor receptor (Homo sapiens, UniProt P00533, C797S/L858R/T790M) (P00533 25-1210 T790M/C797S/L858R limits assumed): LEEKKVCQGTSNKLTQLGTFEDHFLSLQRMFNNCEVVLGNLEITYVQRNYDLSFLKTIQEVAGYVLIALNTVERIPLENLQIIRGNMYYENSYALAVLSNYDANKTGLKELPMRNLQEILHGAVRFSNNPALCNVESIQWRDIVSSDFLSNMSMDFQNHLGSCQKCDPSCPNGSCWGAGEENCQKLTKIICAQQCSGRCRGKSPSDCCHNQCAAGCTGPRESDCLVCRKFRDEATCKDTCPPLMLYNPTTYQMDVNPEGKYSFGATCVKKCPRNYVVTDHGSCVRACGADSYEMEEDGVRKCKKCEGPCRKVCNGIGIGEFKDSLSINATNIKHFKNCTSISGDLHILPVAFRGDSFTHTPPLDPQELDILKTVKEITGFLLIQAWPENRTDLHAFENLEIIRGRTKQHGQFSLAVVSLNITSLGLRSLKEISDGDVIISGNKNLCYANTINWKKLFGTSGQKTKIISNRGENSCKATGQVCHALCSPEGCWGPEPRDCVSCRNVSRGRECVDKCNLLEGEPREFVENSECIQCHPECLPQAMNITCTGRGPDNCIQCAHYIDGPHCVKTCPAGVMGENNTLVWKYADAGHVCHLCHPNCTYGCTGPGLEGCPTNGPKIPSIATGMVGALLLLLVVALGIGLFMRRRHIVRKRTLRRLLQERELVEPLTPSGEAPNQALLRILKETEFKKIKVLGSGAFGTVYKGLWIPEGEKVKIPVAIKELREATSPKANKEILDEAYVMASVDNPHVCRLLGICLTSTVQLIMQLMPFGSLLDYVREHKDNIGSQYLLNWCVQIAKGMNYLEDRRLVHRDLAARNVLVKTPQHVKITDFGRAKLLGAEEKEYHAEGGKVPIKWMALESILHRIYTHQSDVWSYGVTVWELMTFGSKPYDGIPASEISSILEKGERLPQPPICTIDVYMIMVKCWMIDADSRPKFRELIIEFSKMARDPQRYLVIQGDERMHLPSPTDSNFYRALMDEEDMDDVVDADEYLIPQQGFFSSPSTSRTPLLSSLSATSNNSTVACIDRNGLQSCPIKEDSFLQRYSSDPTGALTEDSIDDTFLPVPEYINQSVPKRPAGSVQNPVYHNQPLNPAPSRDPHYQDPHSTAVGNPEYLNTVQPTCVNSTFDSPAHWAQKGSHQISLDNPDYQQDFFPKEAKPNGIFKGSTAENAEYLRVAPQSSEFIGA

Question: For CCN1CCN(c2ccc(Nc3nc(Nc4ccccc4N(C)S(C)(=O)=O)c4cc[nH]c4n3)cc2F)CC1, which remaining at 1 h [1] is on record?
Answer: 41.9%

Question: And the clearance [2]?
Answer: 85 mL/min/kg

Question: And the Activity [3]?
Answer: Non-Toxic

Question: And the IC50 [4]?
Answer: 1320 nM

Question: And the half-life [5]?
Answer: 2.3 h

Question: What about the IC50 [6] of the same compound?
Answer: 2160 nM

Question: And the IC50 [7]?
Answer: 667 nM

Question: And the “Ratio IC50” value [8]?
Answer: 5.4

Question: What about the IC50 [9] of the same compound?
Answer: 23 nM

Question: What about the IC50 [10] of the same compound?
Answer: 155 nM

Question: And the half-life [11]?
Answer: 0.7 h

Question: What about the fraction unbound at 6 h [12] of the same compound?
Answer: 0.916

Question: What about the IC50 [13] of the same compound?
Answer: > 10000 nM

Question: And the Cmax [14]?
Answer: 4550 ng/mL

Question: What about the Tmax [15] of the same compound?
Answer: 0.5 h

Question: What about the IC50 [16] of the same compound?
Answer: 121 nM

Question: And the IC50 [17]?
Answer: 3940 nM

Question: And the IC50 [18]?
Answer: 9.2 nM

Question: And the Vd [19]?
Answer: 2 L/kg

Question: What about the AUC(0-t) at 24 h [20] of the same compound?
Answer: 34000 ng·h/mL

Question: What about the “Ratio IC50” value [21] of the same compound?
Answer: 5.4

Question: What about the IC50 [22] of the same compound?
Answer: 202 nM

Question: And the remaining at 2 h [23]?
Answer: 97.8%

Question: What about the IC50 [24] of the same compound?
Answer: 334 nM

Question: And the Cmax [25]?
Answer: 6030 ng/mL

Question: What about the fraction unbound at 6 h [26] of the same compound?
Answer: 0.926

Question: And the IC50 [27]?
Answer: 9.6 nM

Question: What about the IC50 [28] of the same compound?
Answer: 178 nM

Question: And the remaining at 2 h [29]?
Answer: 91.8%

Question: What about the remaining at 1 h [30] of the same compound?
Answer: 33%

Question: And the IC50 [31]?
Answer: 10.1 nM

Question: And the IC50 [32]?
Answer: 12.7 nM

Question: What about the Activity [33] of the same compound?
Answer: Non-Toxic

Question: And the bioavailability [34]?
Answer: > 100%

Question: What about the AUC(0-t) at 24 h [35] of the same compound?
Answer: 978 ng·h/mL

Question: And the IC50 [36]?
Answer: 27 nM

Question: For CCN1CCN(C2CCN(c3ccc(Nc4nc(Nc5ccccc5N(C)S(C)(=O)=O)c5cc[nH]c5n4)cc3F)CC2)CC1, which remaining at 1 h [1] is on record?
Answer: 57.3%

Question: And the clearance [2]?
Answer: 53.3 mL/min/kg

Question: What about the Activity [3] of the same compound?
Answer: Non-Toxic

Question: What about the IC50 [4] of the same compound?
Answer: 1180 nM

Question: And the half-life [5]?
Answer: 3.5 h

Question: And the IC50 [6]?
Answer: 1820 nM

Question: And the IC50 [7]?
Answer: 713 nM

Question: What about the “Ratio IC50” value [8] of the same compound?
Answer: 5.4

Question: What about the IC50 [9] of the same compound?
Answer: 26 nM

Question: What about the IC50 [10] of the same compound?
Answer: 151 nM

Question: And the half-life [11]?
Answer: 1.7 h

Question: What about the fraction unbound at 6 h [12] of the same compound?
Answer: 0.937

Question: What about the IC50 [13] of the same compound?
Answer: 10300 nM

Question: What about the Cmax [14] of the same compound?
Answer: 1560 ng/mL

Question: What about the Tmax [15] of the same compound?
Answer: 2 h

Question: What about the IC50 [16] of the same compound?
Answer: 84.2 nM

Question: And the IC50 [17]?
Answer: 1670 nM

Question: What about the IC50 [18] of the same compound?
Answer: 4.2 nM

Question: What about the Vd [19] of the same compound?
Answer: 10.8 L/kg

Question: And the AUC(0-t) at 24 h [20]?
Answer: 35800 ng·h/mL

Question: And the “Ratio IC50” value [21]?
Answer: 5.4

Question: What about the IC50 [22] of the same compound?
Answer: 130 nM

Question: And the remaining at 2 h [23]?
Answer: 97.4%

Question: And the IC50 [24]?
Answer: 484 nM

Question: What about the Cmax [25] of the same compound?
Answer: 5480 ng/mL

Question: And the fraction unbound at 6 h [26]?
Answer: 0.946

Question: What about the IC50 [27] of the same compound?
Answer: 7.4 nM

Question: And the IC50 [28]?
Answer: 98.8 nM

Question: And the remaining at 2 h [29]?
Answer: 99.1%

Question: And the remaining at 1 h [30]?
Answer: 24%

Question: And the IC50 [31]?
Answer: 15.5 nM

Question: What about the IC50 [32] of the same compound?
Answer: 4.7 nM

Question: And the Activity [33]?
Answer: Non-Toxic

Question: What about the bioavailability [34] of the same compound?
Answer: > 100%

Question: And the AUC(0-t) at 24 h [35]?
Answer: 1560 ng·h/mL

Question: And the IC50 [36]?
Answer: 7.1 nM
